Measured values: patent publication US6187800A, “Method for the prevention and treatment of mastitis” (Novartis Animal Health U.S., Inc., priority 1997, dated 2001)

Test system: Staphylococcus aureus
Test: Efficacy in subclinical bovine mastitis (experimentally infected quarters, intramammary treatment)
Type: in vivo, cows (bovine)
Conditions: n = 9
From the text: A dairy herd is maintained to supply candidate cows for enrollment in trials. Cows are bought from local cattle dealers. These cows should have a minimal milk production of 15 l/day. Two milk samples are taken one day apart from all quarters for bacteriological examination. No cows from which mastitis pathogens can be recovered are entered into the tests. Non-infected cows are selected based on non recovery of Staphylococcus aureus from two milk samples taken one day apart from all quarters. Then, 3 quarters are inoculated via the intramammary route using a suspension of Staphylococcus aureus. The 4th quarter serves as a control for the milking hygiene routines. During the two to four weeks after inoculation, milk samples are taken from all quarters, at least 3 times. These samples are cultured, and if Staphylococcus aureus is recovered from at least two of them, the quarter is considered infected.
Treatments are assigned randomly to infected quarters and injected via the intramammary route. Milk samples are taken daily until a minimum of 14 days after the last treatment. A quarter is considered to be cured if milk samples from that quarter become negative (i.e., no Staphylococcus aureus can be recovered) within 7 days after the last treatment and stay negative throughout the following 14 day sampling period.
This experimental model is used to have a fixed framework on which to evaluate treatments. To work with Staphylococcus aureus has the advantage that it is the most difficult Gram positive bacterium to treat and one of the most important bacteria causing bovine mastitis. Therefore, cure rates should be expected to be lower than for other Gram positive bacteria, such as Streptococci and coagulase-negative Staphylococci.
The results presented in Table 2 show the percentage of quarters positive for Staphylococcus aureus (i.e., quarters from which Staphylococcus aureus can be recovered) during and after treatment with 3 doses of either placebo, 2 mg micrococcin P1, or 300 mg ampiclox at 12 hour intervals, or 3 doses with 4 mg micrococcin P1 at 48 hour intervals.

For micrococcin P1, which “% of quarters positive” value (3 × 2 mg each 12 hours, day 0 after start of treatment) is on record?
Its value is 100.0%.

What about the “% of quarters positive” value (3 × 2 mg each 12 hours, day 1 after start of treatment) of the same substance?
The value was 62.5%.

And the “% of quarters positive” value (3 × 2 mg each 12 hours, day 2 after start of treatment)?
The value was 12.5%.

And the “% of quarters positive” value (3 × 2 mg each 12 hours, day 3 after start of treatment)?
Its value is 50.0%.

And the “% of quarters positive” value (3 × 2 mg each 12 hours, day 4 after start of treatment)?
Its value is 50.0%.

And the “% of quarters positive” value (3 × 2 mg each 12 hours, day 5 after start of treatment)?
Its value is 62.5%.

And the “% of quarters positive” value (3 × 2 mg each 12 hours, day 7 after start of treatment)?
The value was 62.5%.

What about the “% of quarters positive” value (3 × 2 mg each 12 hours, day 8 after start of treatment) of the same substance?
The value was 75.0%.

And the “% of quarters positive” value (3 × 2 mg each 12 hours, day 9 after start of treatment)?
The value was 75.0%.

What about the “% of quarters positive” value (3 × 2 mg each 12 hours, day 10 after start of treatment) of the same substance?
Its value is 75.0%.

And the “% of quarters positive” value (3 × 2 mg each 12 hours, day 11 after start of treatment)?
The value was 87.5%.

What about the “% of quarters positive” value (3 × 2 mg each 12 hours, day 12 after start of treatment) of the same substance?
Its value is 75.0%.

And the “% of quarters positive” value (3 × 2 mg each 12 hours, day 14 after start of treatment)?
The value was 87.5%.

What about the “% of quarters positive” value (3 × 2 mg each 12 hours, day 15 after start of treatment) of the same substance?
The value was 62.5%.

And the “% of quarters positive” value (3 × 2 mg each 12 hours, day 16 after start of treatment)?
The value was 75.0%.

What about the “% of quarters positive” value (3 × 4 mg each 48 hours, day 0 after start of treatment) of the same substance?
The value was 100%.

What about the “% of quarters positive” value (3 × 4 mg each 48 hours, day 1 after start of treatment) of the same substance?
The value was 22%.

What about the “% of quarters positive” value (3 × 4 mg each 48 hours, day 2 after start of treatment) of the same substance?
The value was 22%.

And the “% of quarters positive” value (3 × 4 mg each 48 hours, day 3 after start of treatment)?
The value was 11%.

And the “% of quarters positive” value (3 × 4 mg each 48 hours, day 4 after start of treatment)?
The value was 11%.

And the “% of quarters positive” value (3 × 4 mg each 48 hours, day 5 after start of treatment)?
The value was 0%.

What about the “% of quarters positive” value (3 × 4 mg each 48 hours, day 7 after start of treatment) of the same substance?
Its value is 0%.

And the “% of quarters positive” value (3 × 4 mg each 48 hours, day 8 after start of treatment)?
Its value is 22%.

And the “% of quarters positive” value (3 × 4 mg each 48 hours, day 9 after start of treatment)?
Its value is 22%.

And the “% of quarters positive” value (3 × 4 mg each 48 hours, day 10 after start of treatment)?
Its value is 22%.

And the “% of quarters positive” value (3 × 4 mg each 48 hours, day 11 after start of treatment)?
Its value is 22%.

And the “% of quarters positive” value (3 × 4 mg each 48 hours, day 12 after start of treatment)?
Its value is 22%.

And the “% of quarters positive” value (3 × 4 mg each 48 hours, day 14 after start of treatment)?
The value was 44%.

What about the “% of quarters positive” value (3 × 4 mg each 48 hours, day 15 after start of treatment) of the same substance?
Its value is 44%.

And the “% of quarters positive” value (3 × 4 mg each 48 hours, day 16 after start of treatment)?
Its value is 22%.
